Patent US20250242035A1, “GLYCAN CONJUGATE COMPOSITIONS AND METHODS” (GANNA BIO, INC., priority 2022, published 2025)

Legend:
[1] = target: T1, DC-SIGNR (Homo sapiens, UniProt Q9H2X3); test: In vitro glycan array protein binding, DC-SIGNR; conditions: 20 μg/mL protein, glycan printed at 100 μM
T1 construct: purchased R&D Systems 162-D2
T1 sequence (Q9H2X3 1-399): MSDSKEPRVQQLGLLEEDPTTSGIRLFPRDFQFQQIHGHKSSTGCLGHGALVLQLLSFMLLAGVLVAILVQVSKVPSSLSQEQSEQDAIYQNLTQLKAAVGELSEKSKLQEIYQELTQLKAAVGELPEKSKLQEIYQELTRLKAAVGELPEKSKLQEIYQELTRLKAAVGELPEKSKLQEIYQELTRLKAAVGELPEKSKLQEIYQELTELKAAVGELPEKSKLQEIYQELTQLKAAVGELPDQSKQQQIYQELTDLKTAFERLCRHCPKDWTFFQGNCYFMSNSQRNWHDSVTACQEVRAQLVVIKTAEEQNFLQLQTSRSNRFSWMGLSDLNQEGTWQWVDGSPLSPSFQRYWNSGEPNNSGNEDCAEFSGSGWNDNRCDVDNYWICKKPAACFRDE
Protocol: […]. Commercially available proteins tagged with human fragment crystallizable region (Fc) were used for the glycan array screening: DC-SIGNR (R&D Systems, 162-D2), Siglec7 (R&D Systems, 1138-SL), CD2 (R&D Systems, 1856-CD-050), CD83 (R&D Systems, 2044-CD), KLRF1 (R&D Systems, 1099-NK), CD28 (Sino Biological Inc., 11524-H41H).
Protein samples were prepared with 1% bovine serum albumin (BSA) in tris-sucrose-magnesium chloride (TSM) buffer with additional Ca^2+ (20 mM tris-HCl, 150 mM sodium chloride, 5 mM calcium chloride, 2 mM magnesium chloride, and 0.05% Tween 20). Proteins were incubated with the glycan array for 1 hour at room temperature at the concentrations indicated in Tables 9A-9F before being washed three times with wash buffer (20 mM tris-HCl, 150 mM sodium chloride, 5 mM calcium chloride, 2 mM magnesium chloride). The arrays were then contacted with Alexa Fluor 488-labeled goat anti-human IgG (H+L) (Invitrogen A-11013) at 5 μg/ml and measured by fluorescence detection. Values in Tables 9A-9F are reported in relative fluorescence units (RFUs).

[2] = target: T2, Siglec-7 (Homo sapiens, UniProt Q9Y286); test: In vitro glycan array protein binding, Siglec-7; conditions: 10 μg/mL protein, glycan printed at 100 μM
T2 construct: purchased R&D Systems 1138-SL

[3] = test system: FXII; test: Knockdown measured using plasma FXII ELISA; type: in vivo, mice; conditions: 10-day post dose
Protocol: Glyco-siRNA conjugates were prepared as described in Examples 6 and 7, wherein the siRNA was an HPRT1-siRNA (SEQ ID NOS: 8 and 9).
Plasma from the 10-day post dose mice was collected using EDTA tube and saved at −80° C. before analysis. The plasma FXII levels were measured using Innov-Research FXII ELISA kit (Cat. No. IMSF12KT) following the provider's instructions.

[4] = test system: Natural Killer (NK) cells; test: In vitro glyco-siRNA internalization by stem loop qPCR, NK cells; type: cell-based
Protocol: (§1) Primary B cells, T cells and NK cells were purchased from […] Technologies Inc. Primary B, T and NK cells were plated 24 hours before the experiment at 100,000 cells per well in […] of Roswell Park Memorial Institute (RPMI) medium with 10% fetal bovine serum (FBS) in 96-well plates. Glyco-siRNAs were incubated with cells for 4 hours. After incubation, media was removed and washed three times in PBS or PBS+150 mM NaCl. […] A final concentration of 1 mM dNTP, 5 U/μl transcriptase, 0.38 U/μl Rnase inhibitor, 50 nM stem loop RT primer (IDT) against siRNA targeting beta catenin (5′-[…]-3′ (SEQ ID NO: 21)) was mixed in a 10 μl volume reaction with 1× buffer. Frozen cell lysates were thawed and heated at 95° C. for 10 minutes and 5 μl of the boiled cell lysate was added to each 10 μl of reverse transcription mix. Samples were incubated first in 16° C. for 30 minutes then 42° C. for 30 minutes followed by 85° C. for 5 minutes and the samples were ready to be used for qPCR reaction. […] 1.5 ul of cDNA template from the reverse transcription reaction is added to the qPCR mix to a final volume for 10 μl. Samples were first incubated at 95° C. for 10 minutes followed by 40 cycles of 30 seconds of 95° C. and 1 minute at 60° C. Relative enrichment of siRNA over endogenous Micro-RNAs were calculated based on the Ct value of standard curve.

[5] = test system: Primary T cells; test: In vitro glyco-siRNA internalization by stem loop qPCR, primary T cells; type: cell-based
Protocol: as §1

[6] = test system: Primary B cells; test: In vitro glyco-siRNA internalization by stem loop qPCR, primary B cells; type: cell-based
Protocol: as §1

T2 sequence (Q9Y286 19-467): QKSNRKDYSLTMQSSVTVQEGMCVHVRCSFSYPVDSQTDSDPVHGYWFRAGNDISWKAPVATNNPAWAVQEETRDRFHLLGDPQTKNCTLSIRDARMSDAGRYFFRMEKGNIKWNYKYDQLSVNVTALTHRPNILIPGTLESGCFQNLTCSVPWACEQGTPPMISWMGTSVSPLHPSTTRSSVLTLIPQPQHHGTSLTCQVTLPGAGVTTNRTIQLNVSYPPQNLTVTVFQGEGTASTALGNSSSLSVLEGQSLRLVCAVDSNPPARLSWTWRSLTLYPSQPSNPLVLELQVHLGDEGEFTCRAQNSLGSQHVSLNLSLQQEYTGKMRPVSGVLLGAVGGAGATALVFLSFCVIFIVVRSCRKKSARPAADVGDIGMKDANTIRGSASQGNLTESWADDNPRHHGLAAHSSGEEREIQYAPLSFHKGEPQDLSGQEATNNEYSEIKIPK

CC(=O)N[C@H]1[C@H](O[C@H]2[C@@H](O)[C@@H](CO)O[C@@H](O[C@H]3[C@H](O)[C@@H](O)C(O)O[C@@H]3CO)[C@@H]2O)O[C@H](CO)[C@@H](O[C@@H]2O[C@H](CO)[C@H](O)[C@@H](O[C@@H]3O[C@H](CO)[C@@H](O)[C@H](O)[C@H]3NC(C)=O)[C@H]2O)[C@@H]1O (stereo partly shown) [K-28, GlcNAcb1-3Galb1-4GlcNAcb1-3Galb1-4Glc]
Binding to DC-SIGNR (20 μg/ml)(RFU) [1]: 723698.8 RFU

CC(=O)N[C@H]1[C@H](O[C@H]2[C@@H](O)[C@@H](CO)O[C@@H](O[C@H]3[C@H](O)[C@@H](O)C(O)O[C@@H]3CO)[C@@H]2O)O[C@H](CO)[C@@H](O[C@@H]2O[C@H](CO)[C@H](O)[C@H](O)[C@H]2O)[C@@H]1O[C@@H]1O[C@@H](C)[C@@H](O)[C@@H](O)[C@@H]1O (stereo partly shown) [K-29, Galb1-4(Fucα1-3)GlcNAcb1-3Galb1-4Glc]
Binding to DC-SIGNR (20 μg/ml)(RFU) [1]: 718967.2 RFU

CC(=O)NC1C(OC2C(O)C(CO)OC(OC3C(CO)OC(O)C(O)C3O)C2O)OC(CO)C(OC2OC(CO)C(O)C(OC3OC(CO)C(OC4OC(CO)C(O)C(O)C4OC4OC(C)C(O)C(O)C4O)C(O)C3NC(C)=O)C2O)C1O (stereo not shown) [K-22, Fucα1-2Galb1-4GlcNAcb1-3Galb1-4GlcNAcb1-3Galb1-4Glc]
Binding to DC-SIGNR (20 μg/ml)(RFU) [1]: 1047827 RFU

CC(=O)N[C@H]1[C@H]([C@H](O)[C@H](O)CO)O[C@@](O[C@H](CO)[C@@H](O)[C@@H]2O[C@@](O[C@H]3[C@@H](O)[C@@H](CO)O[C@@H](O[C@H]4[C@H](O)[C@@H](O)C(O)O[C@@H]4CO)[C@@H]3O)(C(=O)O)C[C@H](O)[C@H]2NC(C)=O)(C(=O)O)C[C@@H]1O (stereo partly shown) [K-51, Neu5Ac(a2-8)Neu5Ac(a2-3)Gal(b1-4)Glc]
Binding to Siglec-7 (10 μg/ml)(RFU) [2]: 28368.5 RFU

CC(=O)N[C@H]1[C@H](O[C@H]2[C@@H](O)[C@@H](CO)O[C@@H](O[C@H]3[C@H](O)[C@@H](O)C(O)O[C@@H]3CO)[C@@H]2O)O[C@H](CO)[C@@H](O[C@@H]2O[C@H](CO)[C@H](O)[C@H](O)[C@H]2O[C@@H]2O[C@@H](C)[C@@H](O)[C@@H](O)[C@@H]2O)[C@@H]1O (stereo partly shown) [K-30, Fuca1-2Galb1-4GlcNAcb1-3Galb1-4Glc]
Binding to DC-SIGNR (20 μg/ml)(RFU) [1]: 631597 RFU

CC(=O)N[C@H]1[C@H](O[C@H]2[C@@H](O)[C@@H](CO)O[C@@H](O[C@H]3[C@H](O)[C@@H](O)C(O)O[C@@H]3CO)[C@@H]2O)O[C@H](CO)[C@@H](O[C@@H]2O[C@H](CO)[C@H](O)[C@H](O[C@H]3O[C@H](CO)[C@H](O)[C@H](O)[C@H]3O)[C@H]2O)[C@@H]1O[C@@H]1O[C@@H](C)[C@@H](O)[C@@H](O)[C@@H]1O (stereo partly shown) [K-31, Gala1-3Galb1-4(Fuca1-3)GlcNAcb1-3Galb1-4Glc]
Binding to DC-SIGNR (20 μg/ml)(RFU) [1]: 543554.7 RFU

[N-]=[N+]=NCCO[C@@H]1O[C@H](CO)[C@@H](O)[C@H](O)[C@H]1O [X-2, 2-Azidoethyl β-D-glucopyranoside, reference compound]
Knockdown Relative to PBS Control Measured Using FXII ELISA, % of PBS Control ([3]; 0.1 mg/kg): 83.00 % of PBS Control
Knockdown Relative to PBS Control Measured Using FXII ELISA, % of PBS Control ([3]; 1 mg/kg): 77.24 % of PBS Control
NK Cell Uptake (Fold Increase vs Naked siRNA) ([4]; Donor 1 repeat 1, NK cells incubated with glyco-siRNA for 4 hours): 2.16 fold
NK Cell Uptake (Fold Increase vs Naked siRNA) ([4]; Donor 2 repeat 2, NK cells incubated with glyco-siRNA for 4 hours): 2.60 fold
Primary T Cell Uptake (Fold Increase vs Naked siRNA) ([5]; Donor 1, 4 hours incubation): 2.83 Fold
Primary T Cell Uptake (Fold Increase vs Naked siRNA) ([5]; Donor 2, 4 hours incubation): 1.68 Fold
Primary B Cell Uptake (Fold Increase vs Naked siRNA) ([6]; Donor 1, 4 hours incubation): 2.72 Fold
Primary B Cell Uptake (Fold Increase vs Naked siRNA) ([6]; Donor 2, 4 hours incubation): 2.17 Fold

CC(=O)NC1C(OCC2OC(OC3C(CO)OC(O)C(O)C3O)C(O)C(OC3OC(CO)C(O)C(O)C3NC(C)=O)C2O)OC(CO)C(O)C1O (stereo not shown) [K-27, GlcNAcb1-3(GlcNAcb1-6)Galb1-4Glc]
Binding to DC-SIGNR (20 μg/ml)(RFU) [1]: 862190.8 RFU

CC(=O)N[C@H]1[C@H](O[C@H]2[C@@H](O)[C@@H](CO)O[C@@H](O[C@H]3[C@H](O)[C@@H](O)C(O)O[C@@H]3CO)[C@@H]2O)O[C@H](CO)[C@@H](O)[C@@H]1O (stereo partly shown) [K-23, GlcNAcb1-3Galb1-4Glc]
Binding to DC-SIGNR (20 μg/ml)(RFU) [1]: 1047468 RFU
